Source: PubChem BioAssay (NCI)
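In this assay, cells in 96-well plates receive the compound at five concentrations for 48 hours. Endpoints are linearly interpolated between the surrounding concentrations. TGI is the concentration that stops growth completely.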

Tests used:
Assay in all cases: NCI anticancer screen, dose series, 48 h
786-0 renal = test system: 786-0 renal
CCRF-CEM leukemia = test system: CCRF-CEM leukemia
EKVX NSCLC = test system: EKVX NSCLC
HCT-116 colon = test system: HCT-116 colon
MALME-3M melanoma = test system: MALME-3M melanoma
MOLT-4 leukemia = test system: MOLT-4 leukemia
NCI-H23 lung = test system: NCI-H23 lung
NCI-H460 lung = test system: NCI-H460 lung
OVCAR-3 ovarian = test system: OVCAR-3 ovarian
RPMI-8226 leukemia = test system: RPMI-8226 leukemia
SF-295 CNS = test system: SF-295 CNS
SK-OV-3 ovarian = test system: SK-OV-3 ovarian
UACC-62 melanoma = test system: UACC-62 melanoma
UO-31 renal = test system: UO-31 renal
MDA-MB-231 breast = test system: MDA-MB-231 breast

Row | Compound | TGI (786-0 renal) | TGI (CCRF-CEM leukemia) | TGI (EKVX NSCLC) | TGI (HCT-116 colon) | TGI (MALME-3M melanoma) | TGI (MOLT-4 leukemia) | TGI (NCI-H23 lung) | TGI (NCI-H460 lung) | TGI (OVCAR-3 ovarian) | TGI (RPMI-8226 leukemia) | TGI (SF-295 CNS) | TGI (SK-OV-3 ovarian) | TGI (UACC-62 melanoma) | TGI (UO-31 renal) | TGI (MDA-MB-231 breast)
1 | COc1c(C(CC(C)C)OC(C)=O)ccc2c1C(=O)OCc1cc(C)cc(O)c1O2 (stereo unspecified) | 29.2 µM | > 100 µM | 24.1 µM | 25.1 µM | 29.8 µM | > 100 µM | 23.3 µM | 26.8 µM | 22.3 µM | > 100 µM | 27.8 µM | 31 µM | 25.5 µM | 19.7 µM | –
2 | c1ccc2c(NCCCCCCCCNc3cccc4ccccc34)cccc2c1 | 57.1 µM | 42.5 µM | > 10 µM | 40 µM | 46.5 µM | 39.9 µM | 65 µM | 60.5 µM | > 100 µM | > 10 µM | > 100 µM | > 100 µM | 45.9 µM | > 100 µM | –
3 | Cc1ccc(-c2cnc(NC3OC(COC(=O)c4ccccc4)C(OC(=O)c4ccccc4)C(OC(=O)c4ccccc4)C3OC(=O)c3ccccc3)s2)cc1 (stereo unspecified) | > 100 µM | – | > 100 µM | > 100 µM | > 100 µM | > 100 µM | > 100 µM | > 100 µM | > 100 µM | > 100 µM | > 100 µM | > 100 µM | > 100 µM | > 100 µM | > 100 µM
4 | C=C1[C@H](OCC(C)C)[C@@H](OCC(C)C)[C@@H](O)C(C)(C)/C=C/[C@H](C)C(=O)[C@@]2(O)C[C@H](C)[C@H](O)[C@@H]2[C@H]1OCC(C)C | > 7.5 µM | – | – | > 7.5 µM | – | > 7.5 µM | > 7.5 µM | > 7.5 µM | > 7.5 µM | – | > 7.5 µM | > 7.5 µM | > 7.5 µM | > 7.5 µM | > 7.5 µM
5 | CC1=C(N(C)C)C(=O)c2nc3n(c2C1=O)CCC3OC(N)=O (stereo unspecified) | 31.6 µM | 42.8 µM | 36 µM | 28.8 µM | 23.3 µM | > 100 µM | 28.5 µM | 30.4 µM | 30.6 µM | > 100 µM | 28.5 µM | 29.5 µM | 18 µM | 31.1 µM | –
6 | CCC12CC[C@H](C#N)N3CCc4c(n(c5ccccc45)C(=O)C1)C32 (stereo partly specified) | 34.1 µM | 44.3 µM | 64.1 µM | 26.8 µM | 19.3 µM | 52 µM | 41.8 µM | 33.8 µM | 29 µM | 48.9 µM | 31.2 µM | 75 µM | 33.4 µM | 10.2 µM | –
7 | N#CC(c1ccc(Cl)cc1)c1cccc(Cl)n1 (stereo unspecified) | > 100 µM | > 100 µM | > 100 µM | – | > 100 µM | > 100 µM | > 100 µM | > 100 µM | > 100 µM | > 100 µM | > 100 µM | > 100 µM | > 100 µM | > 100 µM | –
8 | CC(C)(C)c1cc(N=NC(=S)NCc2ccccc2)cc(C(C)(C)C)c1O | > 100 µM | > 100 µM | > 100 µM | > 100 µM | > 100 µM | > 100 µM | > 100 µM | > 100 µM | > 100 µM | > 100 µM | > 100 µM | – | > 100 µM | > 100 µM | –
9 | CCOC(=O)C1=C(C)C2C3C(=O)NC(=O)C3C1(C)C1C(=O)NC(=O)C21 (stereo unspecified) | > 100 µM | > 100 µM | > 100 µM | > 100 µM | > 100 µM | > 100 µM | > 100 µM | > 100 µM | > 100 µM | > 100 µM | > 100 µM | > 100 µM | > 100 µM | > 100 µM | –
10 | BrC12C3C4C5C(C(C43)C13OCCO3)C52 (stereo unspecified) | > 100 µM | > 100 µM | > 100 µM | > 100 µM | > 100 µM | > 100 µM | > 100 µM | > 100 µM | > 100 µM | > 100 µM | > 100 µM | > 100 µM | – | > 100 µM | –
11 | Clc1ccc2c(Cl)ncnc2c1I | > 100 µM | – | 99.4 µM | > 100 µM | > 100 µM | 61.4 µM | > 100 µM | > 100 µM | > 100 µM | > 100 µM | > 100 µM | > 100 µM | > 100 µM | > 100 µM | –
12 | c1cc2[se][se]c3c4cccc5[se][se]c(c(c1)c23)c54 | > 100 µM | > 100 µM | – | > 100 µM | > 100 µM | > 100 µM | > 100 µM | > 100 µM | > 100 µM | > 100 µM | > 100 µM | > 100 µM | > 100 µM | > 100 µM | –
13 | O=C(CSc1nnc(-c2ccc(N=Cc3ccc(Cl)cc3)cc2)o1)Nc1ccccc1 | 47 µM | > 100 µM | > 100 µM | 31.1 µM | > 100 µM | > 100 µM | > 100 µM | > 100 µM | – | > 100 µM | > 100 µM | > 100 µM | > 100 µM | > 100 µM | –
14 | CC(=O)/C(=C/N1C(=O)CC(=O)NC1=S)C(=O)Nc1ccccc1C | 50.8 µM | – | > 100 µM | > 100 µM | – | > 100 µM | > 100 µM | > 100 µM | 96.4 µM | – | > 100 µM | > 100 µM | 83.8 µM | > 100 µM | > 100 µM
15 | Cc1nc2c(s/c(=N\N)n2-c2ccccc2)c(=O)[nH]1 | > 100 µM | > 100 µM | > 100 µM | > 100 µM | > 100 µM | > 100 µM | > 100 µM | > 100 µM | > 100 µM | > 100 µM | > 100 µM | > 100 µM | > 100 µM | > 100 µM | –
16 | CC[N+](CC)(CC)Cc1cn(S(=O)(=O)c2ccccc2)c2ccccc12 | > 100 µM | > 100 µM | – | > 100 µM | > 100 µM | > 100 µM | > 100 µM | > 100 µM | > 100 µM | > 100 µM | > 100 µM | – | > 100 µM | > 100 µM | –
